The structures appear in SMILES notation.

One series deals with Bacillus subtilis. In words: Antibacterial activity against Bacillus subtilis ATCC 6633 after 24 hrs by agar-based microtiter plate assay. The format is functional.
In another series the test system is Bacillus cereus. In words: Antibacterial activity against Bacillus cereus ATCC 11778 after 24 hrs by agar-based microtiter plate assay. The format is organism-based.
A further series deals with Staphylococcus aureus. In words: Antibacterial activity against Staphylococcus aureus ATCC 25923 after 24 hrs by agar-based microtiter plate assay. The format is organism-based.
In another series the test system is Enterococcus faecalis. In words: Antibacterial activity against Enterococcus faecalis ATCC 29212 after 24 hrs by agar-based microtiter plate assay. The format is functional.

`COC(=O)[C@]12Oc3c(Br)c(C)c(-c4c(C)c(Br)c(O)c5c4O[C@@]4(C(=O)OC)C(=C(O)CC[C@@H]4O)C5=O)c(O)c3C(=O)C1=C(O)CC[C@@H]2O` came in with an LD99 in the series with Bacillus subtilis of 6.3 µg/mL.
Turning to `COC(=O)[C@]12Oc3cc(C)c(-c4c(C)cc5c(c4O)C(=O)C4=C(O)CC[C@H](O)[C@@]4(C(=O)OC)O5)c(O)c3C(=O)C1=C(O)CC[C@@H]2O` [RUGULOTROSIN A], the LD99 in the series on Bacillus cereus worked out at 3.1 µg/mL; in the series with Staphylococcus aureus it was 200 µg/mL; in the series with Enterococcus faecalis, 1.6 µg/mL.
`COC(=O)[C@]12Oc3cc(C)c(-c4c(C)cc(O)c5c4O[C@@]4(C(=O)OC)C(=C(O)CC[C@@H]4O)C5=O)c(O)c3C(=O)C1=C(O)CC[C@@H]2O` [RUGULOTROSIN B] came in with an LD99 in the series with Bacillus subtilis of 25 µg/mL.

Values taken from ChEMBL document CHEMBL1151191, “Rugulotrosins A and B: Two new antibacterial metabolites from an Australian isolate of a Penicillium sp” (J Nat Prod, 2004).
